We go through four compounds from article PMC3725993 (Bioorganic & medicinal chemistry letters, 2013).

Each structure is given as a SMILES string.

For series [1] the following is noted: rat behavioral model; cited from earlier work.
The nature of the next series: Water solubility. The series is classed as physicochemical. As to conditions: statement in words.
The conditions of series [2]: rats; cited from earlier work.

On to `CN1[C@@H](CC(=O)c2ccccc2)CCC[C@H]1C[C@H](O)c1ccccc1` [(−)-Lobeline], for which the “rewarding effects of methamphetamine” value in series [1] was “decrease”.

Consider `Cl.OC[C@H](O)CN1[C@H](CCc2ccc(OC(F)F)cc2)CC[C@@H]1CCc1ccc(OC(F)F)cc1` [Compound 11f], for which, in the series “Water solubility”, the water solubility entry was “water-soluble”.

Turning to `COc1ccc(CC[C@H]2CCC[C@@H](CCc3ccc(OC)cc3)N2C[C@@H](O)CO)cc1` [Compound 3], in series [2], the “METH self-administration (SA) and reward” value was “blocked”; the responding for food entry was “no effect”.

Regarding `COc1ccc(CC[C@@H]2CC[C@H](CCc3ccc(OC)cc3)N2C[C@@H](O)CO)cc1.Cl` [Compound 11d], the water solubility result in the series “Water solubility” is reported as “water-soluble”.
